The source of these data is PMC11899342, “Novel Triazeneindole Antibiotics: Synthesis and Hit-to-Lead Optimization” (International Journal of Molecular Sciences, 2025).

Data set [1] can be described thus: Stability in artificial gastric juice. It is filed as in vitro ADME. The conditions noted are these: pH 1.2, pepsin, 37 °C, read-out: t1/2 in artificial gastric juice. The protocol: During ADME studies, the concentration of the compounds was analyzed using ultra-performance liquid chromatography (UPLC) coupled with tandem mass spectrometry (MS/MS) in the multiple reaction monitoring (MRM) mode. A quantitative analysis was performed using the internal standard (IS) calibration method, with tolbutamide as the IS.
The analyses were carried out on a system composed of an Agilent 1290 Infinity UPLC system (Agilent Technologies, USA) connected by ESI interface to a tandem quadrupole mass spectrometer QTRAP 6500 (AB Sciex Corp, Framingham, MA, USA). The separation was conducted on an YMC Triart C18 50 × 2 mm, 1.9 μm column, which was kept at 35 °C. The samples were cooled to 8 °C in an autosampler, and aliquots of 1 µL were delivered onto the column. Elution was performed using gradients of A (0.1% formic acid in water) and B (0.1% formic acid in acetonitrile), at the flow rate 0.35 mL/min. […] The declustering potential was 31 V for BX and 93 V for IS, resepectively; the collision energy was attuned to 17 eV; the collision cell exit potential was 10 V for BX and 8 V for IS MRM, respectively; the analyses were recorded for 305 → 234 (BX) and 271 → 172 (tolbutamide). […]

The subject of data set [2] is Caco-2 cells. Nature of the data set: Caco-2 cell monolayer permeability. It is filed as in vitro ADME, human. The protocol: (§1) The MultiScreen Caco-2 (ATCC cat. # HTB-37) test system (Millipore, St. Charles, MO, USA) was used to study the transport through a cell monolayer, according to the manufacturer’s instructions. Briefly, a study of transport from the apical membrane to the basolateral (A-B) area and in the opposite direction (B-A) was carried out on a 21-day culture of Caco-2 at a 1 µM concentration of the tested compound for 2 h. Monolayer integrity was verified by measuring electrical resistance (TEER) using a Millicell-ERS instrument. A TEER value of at least 3 KOhm/well was determined to be acceptable.
(In general: Passage across Caco-2 layers is used to estimate intestinal permeability.)

Data set [3] in a line: Caco-2 cell monolayer permeability. Type of data set: in vitro ADME, human. The following applies: human, Caco-2; read-out: Asymmetry index. The protocol:
as §1

A value given as a limit tells only on which side of the number the result lay.

As for `CCOC(=O)c1[nH]c2cc(F)ccc2c1/N=N/N1CCCC1` [BX-SI043, Ethyl (E)-6-fluoro-3-(pyrrolidin-1-yldiazenyl)-1H-indole-2-carboxylate], the half-life at 1 µM in data set [1] is less than 10 min. In data set [2] (Caco-2, 1 µM, 2 h), the “Papp A-B” value is 0.51 10^-6 sm/s. Moreover, the “Papp B-A” value in data set [2] (Caco-2, 1 µM, 2 h) is recorded as 0.19 10^-6 sm/s. Also, the Mass balance in data set [2] (Caco-2, first value: A-B / apical) came out at 49%; in data set [2] (Caco-2, first value: A-B / apical, listed as ВХ-SI043) it was 49%; in data set [2] (Caco-2, second value: B-A / basolateral), 25.1%. For the same compound, the efflux ratio at 2 h, 1 µM in data set [3] was found to be 0.37.
